In patent US20080176224A1, “Methods for Identifying a Patient as a Candidate for Treatment with a Long Acting Beta Agonist and for Predicting a Patient's Response to Long Acting Beta2 Agonist Therapy by Analysing Polymorphisms in the Beta2-Adrenergic Receptor Gene” (ASTRAZENECA AB, priority 2004, published 2008):
Counter-ions that a name gives are not always drawn.

How the values were obtained:
[1] = tested on: patients with stable COPD; assay: Serial and pre-dose FEV1 (spirometry) in Viozan phase III clinical trials, stratified by ADRB2 haplotype; type: in vivo, human
Description: (§1) Samples for genotyping were taken from 2450 patients recruited in four Viozan™ phase III clinical trials, namely SC-397-5097, SC-397-5098, SC-397-5099 and SC-397-5163. The patient population included male and female patients, aged 40 to 80 years, with stable COPD, symptoms for ≧2 years, and a smoking history of at least 15 pack years. […] Further details about the patient population, and the study designs, are described in Laursen et al. Respiratory Medicine (2003), Vol 97, Suppl A, S23-S33. Participation in the genetics sub-study was voluntary. Patients gave separate written informed consent for the genetic analysis. Patients all consented to provide DNA for use in studying the response to Viozan™. Viozan™ is a dual agonist, targeting the β2-adrenergic receptor and the […] genes, developed for the treatment of COPD (Rennard, 2003, Respiratory Medicine, Vol 97, Suppl A, S1-S2).
Pre- and post-dose FEV1 (forced expiratory volume in 1 second), the volume of air exhaled in the first second of the FVC manoeuvre (expressed in litres), measurements were taken at each study visit for all patients, as described in the clinical study protocols. Spirometry measurements were performed using a standard technique at each centre. Details about the spirometer used and the calibration records were provided by each centre. After resting for 15 minutes, slow vital capacity (SVC), forced vital capacity (FVC) and FEV1 were measured for at least three separate manoeuvres. The greatest values for each parameter were recorded.
Serial measurements were taken on day 1 (studies SC-397-5097 and SC-397-5098), weeks 8 and 12 (SC-397-5098) and weeks 14 and 26 (SC-397-5097). The AUC0-8, mean FEV1 at 8 hrs and mean maximum change from pre-dose (FEV1 max) were calculated. These measurements were used to investigate the bronchodilator properties of Viozan™, a long-acting β2-agonist.
Because serial FEV1 measurements were available for only a small number of subjects, and to increase the power of the analyses, the data was subsequently analysed in two subgroups (‘binning’) based on the haplotype pair of each patient; “C” haplotypes (i.e. patients having at least one copy of the ‘C’ haplotype) and “non-C” haplotype (i.e. patients having no ‘C’ haplotype). ‘C’ haplotype group included patients with haplotypes AC, BC and CC, whilst the non-C haplotype group included subjects with haplotypes AA, BB and AB. For the ‘binned’ haplotype analyses, subjects with one or more copies of haplotype D and E were not included, as there were few subjects with these haplotype pairs.
Assessment of the relationship between ADRB2 haplotype and the long-term FEV1 response, was achieved by comparing the pre-treatment and pre-dose baselines. The “pre-treatment” FEV1 baseline is for no prior exposure to the study drug, and was measured at day 1 (visit 2), immediately prior to treatment with Viozan™. The “pre-dose” FEV1 baseline is that measured prior to administration of drug on that day at subsequent visits, during the course of the trials, i.e. at weeks 8 and 12 (SC-397-5098) and weeks 14 and 26 (SC-397-5097). […] Observations are consistent with a trend for prolonged bronchodilation in the C haplotype subgroup and better overall long-term lung function in response to regular treatment with Viozan™ and long acting β2-agonists.
Analysis of the serial FEV1 response between first treatment and following 3 months of Viozan™ treatment was determined by subtracting the pre-treatment baseline (visit 2) from the absolute FEV1 measurements collected at visit 2 (day 1) and the combined data for week 12 (SC-397-5098) and week 14 (SC-397-5097). […] Serial FEV1 response at day 1 (visit 2) overlaps with that at 3 months post treatment, for patients in the ‘C’ haplotype subgroup. A similar response is observed for the non-C haplotype group at day 1 (visit 2). However, the serial FEV1 response, in the non-C haplotype group, appears to be reduced after 3 months of treatment. […]

[2] = tested on: patients with stable COPD; assay: BCSS (breathlessness, cough and sputum score) change from baseline in Viozan clinical trials, stratified by ADRB2 haplotype; type: in vivo, human
Description: as §1
Changes in COPD symptoms were assessed using the BCSS (breathlessness, cough and sputum score), also referred to as the TSS (total symptom score). Each symptom, that is breathlessness, cough and sputum, was evaluated daily by the patient and recorded in a diary using a 5-point Likert scale (ranging from 0 to 4, with the higher values indicating more sever symptoms). The three item scores were summed to calculate the BCSS total score, resulting in a value between 0 and 12. The reliability and validity of the BCSS for evaluating symptoms in COPD is discussed in Leidy et al, 2003, Respiratory Medicine, Vol 97, SupplA, S59-S70. A mean change of ±1 point on the BCSS total score represents a substantial improvement in symptom severity for patients with moderate to severe COPD (Celli et al. Respiratory Medicine, (2003) Vol 97, SupplA, S35-43).

asthmatics = conditions: cited from earlier work
[3] = 3 mth (SC-397-5098) and 6 mth (SC-397-5097) treatment, trend
[4] = first exposure, trials SC-397-5097 and SC-397-5098

Compound | change in baseline (trough) FEV1 over the course of the trials, C-haplotype sub-group [1, 3] | change in baseline (trough) FEV1 over the course of the trials, subjects lacking C-haplotype [1, 3] | serial FEV1 response after 3 months of treatment, non-C haplotype group ([1]; change from pre-treatment baseline, combined week 12 and week 14 data, versus day 1) | time after treatment at which FEV1 response was observed [1, 4] [min] | time for which FEV1 continued to increase post treatment [1, 4] | time of maximum FEV1 increase post study drug [1, 4] | serial FEV1 response, patients with BB haplotype pair ([1]; first exposure, BB (N=13), compared with other haplotype pairs) | serial FEV1 response, patients with BC haplotype ([1]; first exposure, BC (N=21)) | difference in FEV1 between subgroups stratified by ADRB2 haplotype pair ([1]; serial FEV1 at first exposure, haplotype pairs AA, AC, BA, BB, BC) | patients with a clinically significant BCSS response compared to mean placebo response ([2]; C-haplotype group share of the clinical trial population) | BCSS response in C haplotype sub-group versus non-C haplotype group and versus placebo ([2]; change from baseline to final 4 weeks, combined SC-397-5163 and SC-397-5098) | reduction in mean BCSS, 'C' Haps (AC, BC, CC) compared to 'Non-C' Haps (AA, BB, BA) ([2]; combined studies SC-397-5163 and SC-397-5098) | BCSS response in C haplotype sub-group versus non-C haplotype subgroup ([2]; study SC-397-5163, 3 month, C Haps N=84, non-C Haps N=201) | difference in mean BCSS change from baseline to final 4 weeks of treatment, Viozan versus placebo ([2]; unstratified patient population) | lung function response, 2/2 haplotype (asthmatics; 2/2 corresponds to AA) | lung function response, 4/4 haplotype (asthmatics; 4/4 corresponds to BB) | lung function response, 4/6 haplotype (asthmatics; 4/6 corresponds to BC)
O=c1[nH]c2c(O)ccc(CCNCCS(=O)(=O)CCCOCCc3ccccc3)c2s1 [Viozan, Sibenadet HCl] | increase | decrease slightly | reduced | 5 | up to 2 hours | one to two | smaller | greatest response | approximately 100 cc | approximately 30% | significantly better | up to 0.6 | significantly better | neither statistically significant, nor considered to be of clinical importance |  |  | 
CC(C)(C)NCC(O)c1ccc(O)c(CO)c1 (centres unmarked) [albuterol, albuterol sulphate] |  |  |  |  |  |  |  |  |  |  |  |  |  |  | intermediate response | lowest response | best response
